Tests used:
[1] = Salt index of the fertilizer; format: physicochemical
[2] = test system: Golden apple pulp; assay: Foliar fertilization of the pulp of Golden apples; format: in vivo; settings: 30 kg/Ha, treatment last week of April
Method: A first experiment was carried out to measure the foliar fertilization of Golden apples. The treatment was carried out the last week of April using a 3% weight suspension of the fertilizer as claimed in water (30 kg/1000 l water/Ha).

## [Ca+2].[Cl-].[Cl-] [CaCl2, calcium chloride]
[1]
  salt index: 87
[2]
  Calcium: 24 ppm
